Assay results reported in ChEMBL document CHEMBL1124117, “Coupling products of amino acids to penicillin V and cephalothin: synthesis and susceptibility to carboxypeptidases and lysosomal enzymes” (J Med Chem, 1988).

Key:
[1] = Half-life of compound in the presence of lysosomal enzymes in the acetate buffer; format: ADME
[2] = Half-life of compound in acetate buffer (pH 4.5); format: ADME

Row | half-life [1] | half-life [2] | SMILES
1 | 0.8 h | 41 h | CC(=O)OCC1=C(C(=O)NC(CC(C)C)C(=O)O)N2C(=O)[C@@H](NC(=O)Cc3cccs3)[C@H]2SC1 (stereo partly drawn)
2 | 7 h | 7 h | CC1(C)S[C@@H]2[C@H](NC(=O)COc3ccccc3)C(=O)N2[C@H]1C(=O)N[C@@H](Cc1ccc(O)cc1)C(=O)O
3 | 1.1 h | 29 h | CC(=O)OCC1=C(C(=O)O)N2C(=O)[C@@H](NC(=O)Cc3cccs3)[C@H]2SC1 [CEPHALOTHIN]
4 | 14 h | 17 h | CC1(C)S[C@@H]2[C@H](NC(=O)COc3ccccc3)C(=O)N2[C@H]1C(=O)O [PENICILLIN V]
